Literature values, collected in patent US20040131704A1, “A method of organic and all natural treatment, prevention and relief of diaper dermatitis and other related skin irritations” (priority 2003, published 2004).

Assays:
epithelial formations = details: aqueous solution in strengths of 0.30 percent
[1] = topical application of Lavender oil
[2] = system: 18 strains of gram positive and gram-negative bacteria
[3] = relative activity of triterpenoids

In the case of NC(=O)NC1NC(=O)NC1=O (stereo not shown) [Allantoin], the “action in strengthening epithelial formations” value (epithelial formations) is listed as “powerful action”.

For C=CC(C)(O)CCC=C(C)C (stereo not shown) [Linalool], the “time of peak in the blood” value [1] is listed as 19 min, the “time to detection in the blood” value [1] is listed as “five” and the “number of strains with antibacterial activity” value [2] is listed as 17 out of 18 strains.

In the case of CC1(C)CC[C@]2(C)CC[C@]3(C)C(=CC[C@@H]4[C@@]5(C)CC[C@H](O)C(C)(C)[C@@H]5CC[C@]43C)[C@@H]2C1 [beta-amyrin], the anti-inflammatory activity [3] is listed as “less active than the free diol”.

For CC12CCC(CC1)C(C)(C)O2 [cineole], the “number of strains with antibacterial activity” value [2] is listed as 16 out of 18 strains.

For CC1=CC[C@@]2(C)[C@H]([C@@H]1C)[C@H]1CC[C@@H]3[C@@]4(C)CC[C@H](O)C(C)(C)[C@@H]4CC[C@@]3(C)[C@]1(C)C[C@@H]2O [faradiol], the anti-inflammatory activity [3] is listed as “most active of the tested compounds and equals indomethacian in activity”.

In the case of C=CC(C)(CCC=C(C)C)OC(C)=O (stereo not shown) [linalyl acetate], the “time of peak in the blood” value [1] is listed as 19 min and the “time to detection in the blood” value [1] is listed as “five”.

In the case of C=C(C)[C@@H]1CC[C@]2(C)CC[C@]3(C)[C@H](CC[C@@H]4[C@@]5(C)CC[C@H](O)C(C)(C)[C@@H]5CC[C@]43C)[C@@H]12 [lupeol], the anti-inflammatory activity [3] is listed as “less active than the free diol”.

For CC1=CCC2(C)CCC3(C)C(CCC4C5(C)CCC(O)C(C)(C)C5CCC43C)C2C1C (stereo not shown) [psi-taraxzsterol], the anti-inflammatory activity [3] is given as “less active than the free diol”.

In the case of C=C1CC[C@]2(C)CC[C@]3(C)[C@H](CC[C@@H]4[C@@]5(C)CC[C@H](O)C(C)(C)[C@@H]5CC[C@]43C)[C@H]2[C@@H]1C [taraxasterol], the anti-inflammatory activity [3] is listed as “less active than the free diol”.

For faradoil monoester, the anti-inflammatory activity [3] is given as “most relevant principle for the activity of the drug”.
